Assay results from the NIST ThermoML archive (doi:10.1016/j.jct.2011.07.021).

Assays:
[1] = refractive index (Na D-line) (dimensionless); xn = mol fraction of the nth substance listed; conditions: 101 kPa, Liquid, Standard Abbe refractometry
[2] = relative permittivity at zero frequency (dimensionless); xn = mol fraction of the nth substance listed; conditions: 101 kPa, Liquid, Parallel plate capacitor

CCC(O)CO (configuration not stated) [1,2-butanediol] + C1COCCO1
Conditions	refractive index, 298.2 K	refractive index, 308.2 K	refractive index, 318.2 K	relative permittivity at zero frequency, 298.2 K	relative permittivity at zero frequency, 308.2 K	relative permittivity at zero frequency, 318.2 K
[1], x1 = 0.099	1.4212	1.416	1.4103	–	–	–
[1], x1 = 0.148	1.4221	1.4166	1.4115	–	–	–
[1], x1 = 0.197	1.4227	1.4173	1.4124	–	–	–
[1], x1 = 0.246	1.4236	1.4182	1.4133	–	–	–
[1], x1 = 0.299	1.4242	1.4189	1.4142	–	–	–
[1], x1 = 0.349	1.4253	1.42	1.415	–	–	–
[1], x1 = 0.401	1.4259	1.4208	1.4162	–	–	–
[1], x1 = 0.448	1.4268	1.4218	1.4168	–	–	–
[1], x1 = 0.51	1.428	1.4231	1.4177	–	–	–
[1], x1 = 0.55	1.4287	1.4237	1.4191	–	–	–
[1], x1 = 0.611	1.4297	1.4248	1.4203	–	–	–
[1], x1 = 0.685	1.4311	1.4263	1.4218	–	–	–
[1], x1 = 0.788	1.433	1.4285	1.4236	–	–	–
[1], x1 = 0.855	1.4341	1.4295	1.4253	–	–	–
[1], x1 = 0.907	1.4353	1.4307	1.4265	–	–	–
[1], x1 = 0.96	1.436	1.432	1.4278	–	–	–
[1], x1 = 1	1.4372	1.433	1.4288	–	–	–
[2], x1 = 0.099	–	–	–	3.127	3.015	2.92
[2], x1 = 0.148	–	–	–	3.659	3.496	3.359
[2], x1 = 0.197	–	–	–	4.254	4.064	3.875
[2], x1 = 0.246	–	–	–	4.882	4.632	4.406
[2], x1 = 0.299	–	–	–	5.685	5.407	5.046
[2], x1 = 0.349	–	–	–	6.472	6.079	5.696
[2], x1 = 0.401	–	–	–	7.376	6.854	6.419
[2], x1 = 0.448	–	–	–	8.243	7.732	7.193
[2], x1 = 0.51	–	–	–	9.466	8.817	8.122
[2], x1 = 0.55	–	–	–	10.263	9.592	8.783
[2], x1 = 0.611	–	–	–	11.646	10.84	9.908
[2], x1 = 0.685	–	–	–	13.401	12.41	11.301
[2], x1 = 0.788	–	–	–	16.007	14.739	13.469
[2], x1 = 0.855	–	–	–	17.761	16.335	15.027
[2], x1 = 0.907	–	–	–	19.272	17.748	16.307
[2], x1 = 0.96	–	–	–	20.867	19.214	17.628
[2], x1 = 1	–	–	–	22.143	20.365	18.661
